Data: patent EP4603105A1, “PHARMACEUTICAL COMPOSITION CONTAINING CYCLIC COMPOUND HAVING SELECTIVE KRAS INHIBITORY EFFECT AGAINST HRAS AND NRAS” (CHUGAI SEIYAKU KABUSHIKI KAISHA, priority 2022, dated 2024)

Key:
[1] = test system: human lung cancer strain NCI-H441; format: cell-based
Summary of the method: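 Readout: […] after the ATP-based reagent. Compound: serial dilutions in dimethyl sulfoxide.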

[2] = target: GDP-bound KRAS wild-type protein (Homo sapiens, UniProt P01116); test: Binding to KRAS by surface plasmon resonance (SPR), dissociation constant KD; conditions: Single Cycle Kinetics, 1:1 binding model
Summary of the method: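 Compound binding is evaluated by SPR single-cycle kinetics, with concentrations added intermittently from low to high for 75 s each. Target surfaces carry GDP-loaded biotinylated Avi-RAS at about 100–300 RU, regenerated after each cycle; temperature 30°C. A 1:1 binding model gives KD.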

HRAS wild-type protein = HRAS wild-type protein (Homo sapiens, UniProt P01112); test: Binding to HRAS by surface plasmon resonance (SPR), KD and KD ratio to KRAS; conditions: ratio of the KD value with respect to HRAS wild-type protein to the KD value with respect to KRAS
Summary of the method: (§1)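 Affinity is measured by surface plasmon resonance at 30°C against captured, GDP-loaded RAS carrying a biotinylated Avi tag. Compounds are titrated by single-cycle kinetics, and KD comes from a 1:1 fit.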

[3] = target: GDP-bound NRAS wild-type protein (Homo sapiens, UniProt P01111); test: Binding to NRAS by surface plasmon resonance (SPR), KD and KD ratio to KRAS; conditions: ratio of the KD value with respect to GDP-bound NRAS wild-type protein to the KD value with respect to KRAS
Summary of the method: as §1

Chain of HRAS wild-type protein (P01112 whole entry): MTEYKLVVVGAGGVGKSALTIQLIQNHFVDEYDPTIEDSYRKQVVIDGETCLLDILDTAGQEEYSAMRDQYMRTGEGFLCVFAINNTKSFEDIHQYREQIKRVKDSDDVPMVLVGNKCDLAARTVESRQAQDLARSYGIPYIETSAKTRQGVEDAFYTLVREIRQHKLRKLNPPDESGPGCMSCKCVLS
Chain of GDP-bound NRAS wild-type protein (P01111 whole entry): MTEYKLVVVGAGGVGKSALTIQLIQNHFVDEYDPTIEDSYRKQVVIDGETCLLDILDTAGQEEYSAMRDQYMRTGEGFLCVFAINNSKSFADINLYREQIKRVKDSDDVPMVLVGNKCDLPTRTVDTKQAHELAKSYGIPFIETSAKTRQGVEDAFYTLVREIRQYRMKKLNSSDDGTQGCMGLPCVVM
Chain of GDP-bound KRAS wild-type protein (P01116 1-188 isoform P01116-2): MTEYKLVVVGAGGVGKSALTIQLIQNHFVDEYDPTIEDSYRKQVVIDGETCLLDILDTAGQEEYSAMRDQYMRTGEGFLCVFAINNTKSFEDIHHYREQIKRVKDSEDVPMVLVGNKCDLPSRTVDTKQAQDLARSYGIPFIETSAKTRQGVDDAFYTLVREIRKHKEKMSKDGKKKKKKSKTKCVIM

Structure (SMILES)	IC50 [1] [nM]	Kd [2] [nM]	HRAS /KRAS (HRAS wild-type protein)	NRAS /KRAS [3]
CCCN(C)C(=O)[C@@H]1CC(=O)N(C)[C@@H](C2CC2)C(=O)N[C@@H]([C@@H](C)CC)C(=O)N(C)CC(=O)N(C)[C@H]2C/C=C\CCN(C2=O)[C@@H](Cc2ccc(C(F)(F)F)cc2)C(=O)N(C)CC(=O)N[C@@H](CCc2cc(F)c(C(F)(F)F)c(F)c2)C(=O)N2C[C@H](OCC)C[C@H]2C(=O)NC2(CC(C)(C)C2)C(=O)N(C)[C@@H](C2CCCC2)C(=O)N1C [PP2037]	16	0.12	A (a compound having 10 or more and less than 20 is denoted as A)	A (a compound having 10 or more and less than 20 is denoted as A)
CCC[C@H]1C(=O)N[C@@H]([C@@H](C)CC)C(=O)N(CCC)CC(=O)N(C)[C@H]2C/C=C\CCN(C2=O)[C@@H](Cc2ccc(C)cc2)C(=O)N(C)CC(=O)N[C@@H](CCc2ccc(C(F)(F)F)c(OC)c2)C(=O)N2C[C@H](OCC)C[C@H]2C(=O)NC2(CC(C)(C)C2)C(=O)N(C)[C@@H](C2CCCC2)C(=O)N(C)[C@H](C(=O)N(C)C)CC(=O)N1C [PP2054]	8.5	0.41	A (a compound having 10 or more and less than 20 is denoted as A)	A (a compound having 10 or more and less than 20 is denoted as A)
C=CCN1CC(=O)N(C)[C@H]2C/C=C\CCN(C2=O)[C@@H](Cc2ccc(C)cc2)C(=O)N(C)CC(=O)N[C@@H](CCc2ccc(C(F)(F)F)c(OC)c2)C(=O)N2C[C@H](OCC)C[C@H]2C(=O)NC2(CC(C)(C)C2)C(=O)N(C)[C@@H](C2CCCC2)C(=O)N(C)[C@H](C(=O)N(C)C)CC(=O)N(C)[C@@H](CC(C)C)C(=O)N[C@@H]([C@@H](C)CC)C1=O [PP2058]	3.7	0.21	A (a compound having 10 or more and less than 20 is denoted as A)	A (a compound having 10 or more and less than 20 is denoted as A)
C#CC[C@H]1C(=O)N[C@@H]([C@@H](C)CC)C(=O)N(C)CC(=O)N(C)[C@H]2C/C=C\CCN(C2=O)[C@@H](Cc2ccc(C(F)(F)F)cc2)C(=O)N(C)CC(=O)N[C@@H](CCc2ccc(C(F)(F)F)c(OC)c2)C(=O)N2C[C@@H](C)C[C@H]2C(=O)NC2(CCC2)C(=O)N(C)[C@@H](C2CCCC2)C(=O)N(C)[C@H](C(=O)N(C)CCC)CC(=O)N1C [PP2063]	13.6	0.09	A (a compound having 10 or more and less than 20 is denoted as A)	AA (a compound having 20 or more is denoted as AA)
CCC[C@H]1C(=O)N[C@@H]([C@@H](C)CC)C(=O)N(C)CC(=O)N(C)[C@H]2C/C=C\CCN(C2=O)[C@@H](Cc2ccc(C)cc2)C(=O)N(C)CC(=O)N[C@@H](CCc2cc(F)c(C(F)(F)F)c(F)c2)C(=O)N2C[C@H](OCC)C[C@H]2C(=O)NC2(CC(C)(C)C2)C(=O)N(C)[C@@H](C(CC)CC)C(=O)N(C)[C@H](C(=O)N(C)C)CC(=O)N1C [PP2064]	13.6	0.26	A (a compound having 10 or more and less than 20 is denoted as A)	A (a compound having 10 or more and less than 20 is denoted as A)
CC[C@H](C)[C@@H]1NC(=O)[C@H](C2CCC2)N(C)C(=O)C[C@@H](C(=O)N(C)CC)N(C)C(=O)[C@H](C2CCCC2)N(C)C(=O)C2(CCC2)NC(=O)[C@@H]2C[C@H](C)CN2C(=O)[C@H](CCc2cc(F)c(C(F)(F)F)c(F)c2)NC(=O)CN(C)C(=O)[C@H](Cc2ccc(C(F)(F)F)cc2)N2CC/C=C\C[C@@H](C2=O)N(C)C(=O)CN(C)C1=O [PP2082]	7.8	0.11	A (a compound having 10 or more and less than 20 is denoted as A)	AA (a compound having 20 or more is denoted as AA)
